The results in this text go back to patent publication US20240366611A1, “METHODS OF TREATING A DISEASE OR DISORDER” (Ascentage Pharma (Suzhou) Co., Ltd., priority 2021, published 2024).

Holding throughout (format): cell-based
Conditions in all cases: 7 days of treatment

Test [1] has as its system HBG mRNA in human CD34+ HSC. Nature of the test: HBG mRNA level in human CD34+ HSC (qRT-PCR). As for the experimental part:
(§1) Human cord blood CD34+ hematopoietic stem cells (HSC) were first expanded in the expansion medium (StemSpan SFEM II+StemSpan CD34 Expansion Supplement) to achieve the desired number of cells, and then differentiated in differentiation medium (StemSpan SFEM II+StemSpan Erythroid Expansion Supplement (100×)) for three days without drug treatment. Various concentrations of Cpd. 73 were added on the fourth day of differentiation and further incubated with the cells for another 7 days. 33 mM Hydroxyurea was used as the control.
After 7 days of treatment, the cells were collected. Total RNA was isolated using Trizol LS reagent (Invitrogen-10296028) and 1 μg RNA of each sample was reverse transcribed into cDNA using High Capacity cDNA Reverse Transcription Kit (AB (Applied Biosystems)-4374966), according to the manufacturer's instructions. Quantitative RT-PCR (qRT-PCR) was performed using an Applied Biosystems QuantStudio 7 Flex system with the primer pairs shown as below: hHBG-mRNA-F1 (5′-[…]-3′) and hHBG-mRNA-R1 (5′-TCACTCAGCTGGGCAAAGG-3′). […] The HBG mRNA level were 1.09-, 2.49-, 7.84-, 9.69- and 12.2-folds of the vehicle group when the cells were treated with 0.01 μM, 0.03 μM, 0.1 μM, 0.3 μM and 1.0 μM Cpd. 73 respectively. […] 73 which increased HBG mRNA by 12.2 folds (p<0.0001, vs. vehicle). The HBG mRNA level of cells treated with 33 mM Hydroxyurea, an approved medicine for SCD, was 6.46-folds of the vehicle group.
For orientation: Real-time PCR tracks product formation cycle by cycle.

Test [2] concerns HbF+ cells in human CD34+ HSC. Nature of the test: HbF+ cell % in human CD34+ HSC by FACS. As for the experimental part:
as §1
After 7 days of treatment, the cells were collected and stained with PE-conjugated Mouse Anti-Human Fetal Hemoglobin (BD, 560041). The percentage of HbF+ cells were quantified by FACS. […] 73 respectively. […] 73 where HbF+ cell % was 2.58-folds of the vehicle group (p<0.0001). The % of HbF+ cells was 1.82-folds of the vehicle group when the cells were treated with 33 mM Hydroxyurea.
(In general: Flow cytometry measures light scatter and fluorescence of single cells or particles in a stream.)

For the next test, the system named is HbF in human CD34+ HSC. Description: HbF concentration in human CD34+ HSC by ELISA. Set-up: HbF concentration, folds of the vehicle group: dose or concentration left out as unconfirmed. As for the experimental part: as §1
After 7 days of treatment, the cells were collected and lysed. The concentration of HbF in the cell lysate was determined using a Human Fetal Hemoglobin (HBF) ELISA Kit (MyBioSource, MBS2024474). […] The cellular HbF concentration were 1.27-, 1.39-, 1.52-, 1.58- and 1.69-folds of the vehicle group when the cells were treated with 0.01 μM, 0.03 μM, 0.1 μM, 0.3 μM and 1.0 μM Cpd. 73 respectively. […] 73 where the cellular HbF concentration was 1.69-folds of the vehicle group (p<0.01). HbF concentration of cells treated with 33 mM Hydroxyurea was 1.18-folds of the vehicle group. Clinically, small increases of HbF concentration (1-5%) have the potential to provide clinical benefits to all SCD patients.
On the technique in general: In an ELISA, binding on a coated surface is turned into a signal by an enzyme label.

As to `NC(=O)NO` [Hydroxyurea, reference compound], in test [1], the “HBG mRNA level, folds of the vehicle group” value is reported as 6.46 folds. Besides, the “% of HbF+ cells, folds of the vehicle group” value in test [2] came to 1.82 folds. Besides, the “HbF concentration, folds of the vehicle group” value with HbF in human CD34+ HSC came to 1.18 folds.
